From article PMC11728000, “Antitumor Activity and Multi-Target Mechanism of Phenolic Schiff Bases Bearing Methanesulfonamide Fragments: Cell Cycle Analysis and a Molecular Modeling Study” (International Journal of Molecular Sciences, 2024)
Like-named read-outs stand apart in the source and are kept apart here.

Assays:
SK-MEL-5 = test system: SK-MEL-5; design: method as in https://dtp.cancer.gov/dtpstandard/dwindex/index.jsp; conditions: ref https://dtp.cancer.gov/dtpstandard/dwindex/index.jsp; cited from earlier work
HCC-2998 = assay: NCI anticancer screening (SRB), Colon Cancer subpanel; assay type: cell-based, human; conditions: for GI%: 10.0 µM in one dose
ACHN = assay: NCI anticancer screening (SRB), Renal Cancer subpanel; assay type: cell-based, human; conditions: for GI%: 10.0 µM in one dose
MDA-MB-231/ATCC = assay: NCI anticancer screening (SRB), Breast Cancer subpanel; assay type: cell-based, human; conditions: for GI%: 10.0 µM in one dose
RPMI-8226 = assay: NCI anticancer screening (SRB), Leukemia subpanel; assay type: cell-based, human
NCI-H322M = assay: NCI anticancer screening (SRB), Non-Small Cell Lung Cancer subpanel; assay type: cell-based, human
NCI-H522 = assay: as above; assay type: cell-based, human
COLO 205 = assay: NCI anticancer screening (SRB), Colon Cancer subpanel; assay type: cell-based, human
HT29 = assay: as above; assay type: cell-based, human
SNB-75 = assay: NCI anticancer screening (SRB), CNS Cancer subpanel; assay type: cell-based, human
UACC-257 = assay: NCI anticancer screening (SRB), Melanoma subpanel; assay type: cell-based, human
[1] = test system: Leukemia subpanel tumor cell lines; assay: NCI anticancer screening, subpanel summary; assay type: cell-based; conditions: Leukemia, mean over subpanel cell lines
[2] = test system: NSC Lung Cancer subpanel tumor cell lines; assay: NCI anticancer screening, subpanel summary; assay type: cell-based; conditions: NSC Lung Cancer, mean over subpanel cell lines
[3] = test system: Colon Cancer subpanel tumor cell lines; assay: NCI anticancer screening, subpanel summary; assay type: cell-based; conditions: mean over subpanel cell lines
[4] = test system: CNS Cancer subpanel tumor cell lines; assay: NCI anticancer screening, subpanel summary; assay type: cell-based; conditions: mean over subpanel cell lines
[5] = test system: Melanoma subpanel tumor cell lines; assay: NCI anticancer screening, subpanel summary; assay type: cell-based; conditions: mean over subpanel cell lines
[6] = test system: Ovarian Cancer subpanel tumor cell lines; assay: NCI anticancer screening, subpanel summary; assay type: cell-based; conditions: Ovarian Cancer, mean over subpanel cell lines
[7] = test system: Renal Cancer subpanel tumor cell lines; assay: NCI anticancer screening, subpanel summary; assay type: cell-based; conditions: mean over subpanel cell lines
[8] = test system: Prostate Cancer subpanel tumor cell lines; assay: NCI anticancer screening, subpanel summary; assay type: cell-based; conditions: mean over subpanel cell lines
[9] = test system: Breast Cancer subpanel tumor cell lines; assay: NCI anticancer screening, subpanel summary; assay type: cell-based; conditions: Breast Cancer, mean over subpanel cell lines
MCF-7 cells [10] = assay: Annexin V-FITC/PI apoptosis assay; assay type: cell-based, human; conditions: 24 h
MCF-7 cells [11] = assay: Cell cycle analysis (PI flow cytometry); assay type: cell-based, human; conditions: 10 μM, 24 h
Procedure: Apoptosis is the primary mechanism by which potent chemotherapeutic agents destroy cancer cells. […] Flow cytometry measured cell growth in the G0-G1, S, and G2/M cell cycle phases.
Using the MCF-7 cell line, the cell cycle analysis was carried out like our previous investigation. A FACSCalibur flow cytometer was used to analyze the cells after they had been stained with DNA fluorochrome PI (Supplementary Materials). […]
photomultiplier voltage and for compensation setting adjustment to eliminate spectral overlap between the FL1 and the FL2 signals.
6. Cell cycle analysis
Breast carcinoma (MCF-7) cell was seeded at 2 × 10^5 cells/well density and incubated for 24 h in six-well plates. Foetal bovine serum (10%) was added, and the cells were incubated at 37 °C in an atmosphere of 5% CO2. The medium was replaced with 1% (v/v) DMSO containing 10.0 μM of […]
with 70% ethanol, rinsed with phosphate-buffered saline, and then stained with the DNA fluorochrome propidium iodide (PI) for 15 min at 37 °C. Then, samples were analyzed by flow cytometry using a FACSCalibur (Becton Dickinson). The cell cycle distributions were calculated using CellQuest software (Becton Dickinson). […]

[12] = test system: 59 human cancer cell lines; assay: NCI anticancer screening, full panel summary
[13] = Homo sapiens, five concentrations
[14] = Homo sapiens, read-out: LC50, subpanel average

## Cc1ccc(-c2cc(C(F)(F)F)nn2-c2ccc(S(N)(=O)=O)cc2)cc1 [Celecoxib, celecoxib]
SK-MEL-5
  GI50: 15800 nM

## CS(=O)(=O)Nc1ccc(C(=O)NN=Cc2ccccc2O)cc1 [Compound 7]
HCC-2998
  GI%: 41%
ACHN
  GI%: 46%
MDA-MB-231/ATCC
  GI%: 34%

## CCN(CC)c1ccc(C=NNC(=O)c2ccc(NS(C)(=O)=O)cc2)c(O)c1 [Compound 8]
RPMI-8226; 10.0 µM in one dose
  GI%: 84%
RPMI-8226; Homo sapiens, PRMI-8226, five concentrations
  GI50: 2720 nM
NCI-H322M; 10.0 µM in one dose
  GI%: 75%
NCI-H322M; [13]
  GI50: 258 nM
NCI-H522; 10.0 µM in one dose
  GI%: 88%
NCI-H522; [13]
  GI50: 360 nM
COLO 205; 10.0 µM in one dose
  GI%: 94%
COLO 205; [13]
  GI50: 349 nM
HCC-2998
  GI%: 62%
HCC-2998; [13]
  GI50: 356 nM
HT29; 10.0 µM in one dose
  GI%: 73%
HT29; Homo sapiens, HT-29, five concentrations
  GI50: 495 nM
SNB-75; 10.0 µM in one dose
  GI%: 52%
SNB-75; [13]
  GI50: 519 nM
UACC-257; 10.0 µM in one dose
  GI%: > 100%
UACC-257; [13]
  GI50: 463 nM
ACHN
  GI%: 84%
ACHN; [13]
  GI50: 513 nM
MDA-MB-231/ATCC
  GI%: 62%
MDA-MB-231/ATCC; [13]
  GI50: 425 nM
[1]; Homo sapiens
  GI50: 700 nM
[1]; [14]
  CC50: > 100000 nM
[1]
  TGI, subpanel average: 79880 nM
[2]; Homo sapiens
  GI50: 622 nM
[2]; [14]
  CC50: 94900 nM
[2]
  TGI, subpanel average: 22080 nM
[3]; Homo sapiens
  GI50: 400 nM
  LC50 (NCI-60 lethal concentration, subpanel average): 80100 nM
[3]
  TGI, subpanel average: 30530 nM
[4]; Homo sapiens
  GI50: 451 nM
[4]; [14]
  CC50: 86600 nM
[4]
  TGI, subpanel average: 14140 nM
[5]; Homo sapiens
  GI50: 563 nM
[5]; [14]
  CC50: 93600 nM
[5]
  TGI, subpanel average: 21640 nM
[6]; Homo sapiens
  GI50: 1030 nM
[6]; [14]
  CC50: 94900 nM
[6]
  GI50: 1030 nM
  TGI, subpanel average: 52900 nM
[7]; Homo sapiens
  GI50: 826 nM
[7]; [14]
  CC50: 80600 nM
[7]
  TGI, subpanel average: 23370 nM
[8]; Homo sapiens
  GI50: 527 nM
[8]; [14]
  CC50: 98000 nM
[8]
  TGI, subpanel average: 60800 nM
[9]
  TGI, subpanel average: 15220 nM
[9]; Homo sapiens
  GI50: 599 nM
[9]; [14]
  CC50: 99800 nM
MCF-7 cells [10]
  Necrosis: 6.08%
MCF-7 cells [10]; annexin V-FITC/PI
  Total Apoptosis: 38.16%
MCF-7 cells [10]; lower-right quadrant
  Early Apoptosis: 22.49%
MCF-7 cells [10]; upper-right quadrant
  Late Apoptosis: 9.59%
MCF-7 cells [11]
  %G0–G1: 51.94%
  %G2-M: 14.64%
  %S: 33.42%
  Comment (cell cycle arrest phase): Growth arrest@ S
[12]; Homo sapiens, read-out: GI50 MG-MID
  GI50: 501 nM
[12]; Homo sapiens, read-out: GI50 range over the cell lines
  GI50: 141 to 2720 nM
[12]; Homo sapiens, read-out: LC50 MG-MID
  CC50: > 100000 nM
[12]; full panel mean-graph midpoint
  TGI MG-MID: 46800 nM
[12]; ratio of cell lines with growth inhibition > 10% to total cell lines, 10 µM single dose
  PCE (positive cytotoxic effect): 59/59

## COc1cc2ncnc(Nc3ccc(F)c(Cl)c3)c2cc1OCCCN1CCOCC1 [Gefitinib, gefitinib]
SK-MEL-5
  GI50: 3160 nM
